Results taken from patent US20100190755A1, “TETRACYCLINE COMPOUNDS FOR THE TREATMENT OF RHEUMATOID ARTHRITIS AND RELATED METHODS OF TREATMENT” (priority 2008, published 2010).
Values after ≈ are worked out from the molar mass of the structure shown.

How the values were obtained:
[1] = test system: E. coli ATCC25922 (tetracycline sensitive); test: E. coli MIC, broth micro-dilution per CLSI guidelines (Table 3); format: cell-based
[2] = test system: Protein synthesis (E. coli S30 Extract System); test: Protein synthesis inhibition, in vitro transcription/translation assay (E. coli S30 Extract System for Circular DNA); format: biochemical
[3] = Pharmacokinetics in rats after i.v. and oral dosing; format: in vivo; conditions: rat
Method: Pre-cannulated (jugular vein and carotid artery for i.v. group and carotid artery for oral group) male CD/IGS rats (approximately 250 g) were used. Rats were fasted overnight prior to dosing with access to food restored 2 hours after dosing. Rats were administered with approximately 0.25 mL compound (1 mg/kg dose) for i.v. route (via jugular vein over 20 seconds) or 0.5 mL solution (5 mg/kg dose) orally. Blood (300 μL) was collected in tubes with EDTA anticoagulant at various time points, centrifuged and plasma collected and stored frozen at −20° C. Animals were euthanized by CO2 following the final blood collection. Plasma was extracted (0.1% trifluoroacetic acid in 67% acetonitrile/33% water) and levels of compound quantified by HPLC/MS against a standard curve.

[4] = test system: collagen-induced arthritis (CIA) in male DBA/1 mice; test: Murine collagen-induced arthritis (CIA) model, Example 2; format: in vivo, mouse
Method: Four non-antibacterial analogues of minocycline (J, W, AF and AT) were synthesized and tested in the murine model of the disease, collagen-induced arthritis (CIA) (See supra). Male DBA/1 mice were immunized intradermally with 200 μg of bovine type II collagen and boosted with collagen three weeks later. Minocycline and four non-antibacterial minocycline derivatives were administered i.p. beginning after disease onset. Paw thickness was measured and animals were scored daily.
(§1) • 1. Male DBA/1 mice were immunized i.d. with an emulsion of 200 μg bovine type II collagen in Complete Freund's Adjuvant. • 2. On day 21, mice received i.d. boost of 100 μg collagen in Incomplete Freund's Adjuvant • 3. Compounds were administered i.p. daily for 7 days starting from disease onset (day 3-4 after boost). • 4. Foot swelling was measured by an engineering micrometer and disease severity was scored accordingly (1, erythema and mild swelling confined to the tarsal or ankle joint; 2, erythema and mild swelling extending from the ankle to the mid-foot; 3, erythema and moderate swelling extending from the ankle to the metatarsal joints; 4, erythema and severe swelling encompassing the ankle, foot, and digits). • 5. Change (Δ) of paw thickness=sum of paw thickness from 4 paws of a mouse (experimental)−sum of baseline paw thickness from 4 paws of the same mouse. • 6. % inhibition=cumulative A paw thickness (disease group−compound-treated group)/cumulative A paw thickness (disease group)

MMP-9 = test: Paw extract biomarker ELISA, CIA mice: MMP-9; format: in vivo, mouse; conditions: paw extracts from CIA mice
Method: as §1
(§2) • 1. Paws were collected from mice after 5-7 days of dosing and dissected free of skin. • 2. The paws were then homogenized in ice-cold PBS (2 ml/4 paws/mouse) containing 1× protease inhibitor using a Polytron homogenizer. • 3. Debris and particles were removed from the homogenized samples by centrifugation. • 4. Liquid layers were collected for MMP-9, IL-1, IL-6, RANKL, MCP-1, and TNFα analysis using ELISA kits from R & D System.

IL-1 = test: Paw extract biomarker ELISA, CIA mice: IL-1; format: in vivo, mouse; conditions: paw extracts from CIA mice
Method: as §1, §2

IL-6 = test: Paw extract biomarker ELISA, CIA mice: IL-6; format: in vivo, mouse; conditions: paw extracts from CIA mice
Method: as §1, §2

MCP-1 = test: Paw extract biomarker ELISA, CIA mice: MCP-1; format: in vivo, mouse; conditions: paw extracts from CIA mice
Method: as §1, §2

RANKL = test: Paw extract biomarker ELISA, CIA mice: RANKL; format: in vivo, mouse; conditions: paw extracts from CIA mice
Method: as §1, §2

[5] = test system: cytokines (IL-1, IL-6, RANKL and MCP-1) and a matrix metalloproteinase (MMP-9); test: Paw extract biomarker ELISA, CIA mice: whole panel (statements in words); format: in vivo, mouse
Method: as §1, §2

S. aureus RN450 = test: Antibacterial activity MIC, Gram+ (Table 9); format: cell-based; conditions: Staphylococcus aureus, CAMHB, 35° C., approximately 18 hr
In short: (§3)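 Broth microdilution in cation-adjusted Mueller Hinton broth, compound dissolved in DMSO and serially diluted from 200 μg/ml down to 0.098 μg/ml. Log-phase inoculum at final ~5×10^5 CFU/ml, incubated ~18 h at 35 °C in ambient air; MIC is the lowest concentration inhibiting growth, read by plate reader or visually.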

E. coli 25922 = test: Antibacterial activity MIC, Gram- (Table 9); format: cell-based; conditions: Escherichia coli, CAMHB, 35° C., approximately 18 hr
In short: as §3

[6] = test system: collagen-induced arthritis (CIA) in male DBA/1 mice; test: CIA model, Example 3 (cumulative scores vs untreated controls); format: in vivo; conditions: Mus musculus
In short: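 Immunised intradermally with bovine type II collagen in CFA and boosted at day 21 in IFA. After onset, tetracycline derivatives given daily i.p. or orally for 8 to 15 days. Daily visual inflammation scores (0–4 scale) and micrometer paw thickness summed into cumulative scores.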

[7] = 25 mg/kg/day i.p., dosed after disease onset

Question: What does the source list for COC(=O)c1cc(N(C)C)c2c(c1O)C(=O)C1=C(O)[C@]3(O)C(=O)C(C(N)=O)=C(O)C[C@@H]3C[C@@H]1C2 [Compound W]?
Answer: anti-bacterial activity compared to minocycline [1]: no anti-bacterial activity; MIC ([1]; Escherichia coli, E. coli ATCC25922, cation-adjusted Mueller Hinton broth): > 64 µg/mL; IC50 [2]: > 100 µM; bioavailability ([3]; male, CD/IGS, plasma, after oral dosing of 5 mg/kg, read-out: PK Parameters (Rat) % F, fraction of absorption): 52%; bio-available after oral dosing in rats ([3]; oral): bio-available; half-life ([3]; plasma, male CD/IGS rats, 1 mg/kg i.v. or 5 mg/kg oral, read-out: PK Parameters (Rat) T1/2 (converted)): 3 h; % Inhibition (Change in Paw Thickness) AVG [4, 7]: 60%; % Inhibition (Clinical Score) AVG [4, 7]: 40%; EC50 in inflammation suppression in CIA mice ([4]; CIA mice, i.p. daily): 20 mg/kg/day i.p.; Change in Paw Thickness (mm) Mean ([4]; day 1 of dosing, 25 mg/kg/day i.p.): 0.71 mm; Change in Paw Thickness (mm) Mean ([4]; day 2 of dosing, 25 mg/kg/day i.p.): 0.41 mm; Change in Paw Thickness (mm) Mean ([4]; day 3 of dosing, 25 mg/kg/day i.p.): 0.46 mm; Change in Paw Thickness (mm) Mean ([4]; day 4 of dosing, 25 mg/kg/day i.p.): 0.56 mm; Change in Paw Thickness (mm) Mean ([4]; day 5 of dosing, 25 mg/kg/day i.p.): 0.51 mm; Change in Paw Thickness (mm) Mean ([4]; day 6 of dosing, 25 mg/kg/day i.p.): 0.45 mm; Change in Paw Thickness (mm) Mean ([4]; day 7 of dosing, 25 mg/kg/day i.p.): 0.35 mm; Change in Paw Thickness (mm) Mean ([4]; day 8 of dosing, 25 mg/kg/day i.p.): 0.60 mm; Effects on reduction of paw swelling and clinical score compared to either minocycline or methotrexate ([4]; murine CIA model): greater; joint inflammation when administered after disease onset ([4]; murine CIA model): inhibited joint inflammation; Percent level of Biomarker Tissue [c] Compared to Untreated Control, MMP-9 AVG (MMP-9): 72%; Percent level of Biomarker Tissue [c] Compared to Untreated Control, IL-1 AVG (IL-1): 32%; Percent level of Biomarker Tissue [c] Compared to Untreated Control, IL-6 AVG (IL-6): 28%; Percent level of Biomarker Tissue [c] Compared to Untreated Control, MCP-1 AVG (MCP-1): 28%; Percent level of Biomarker Tissue [c] Compared to Untreated Control, RANKL AVG (RANKL): 27%; inhibition of inflammatory/osteoclastic cytokines (MMP-9, IL-1, IL-6, MCP-1, RANKL) in vivo [5]: better than minocycline; MIC (S. aureus RN450): 4 µg/mL (≈ 8.47 µM); MIC (E. coli 25922): > 64 µg/mL; inhibition in vivo at 6 mg/kg ([6]; Dose 6 mg/kg): 25%; inhibition in vivo at 12 mg/kg ([6]; Dose 12 mg/kg): 32%; inhibition in vivo at 25 mg/kg ([6]; Dose 25 mg/kg): 60%
